Assay results from patent publication EP0419676B1, “THIONAPHTHALENE DERIVATIVES, METHOD OF PRODUCING THE SAME, AND ANTIALLERGIC AGENT CONTAINING THE SAME” (TEIJIN LIMITED, priority 1989, dated 1990).
Where two headings read alike, the source gives them in different places.

How the values were obtained:
Lipoxygenase = target: T1, Lipoxygenase (Homo sapiens, UniProt P09917); assay: Lipoxygenase inhibitory activity evaluation: LTB4 and 5-HETE production in A23187-stimulated whole blood; format: cell-based, healthy man; details: 10⁻⁵ M, A23187 25 µM
T1 construct: heparin-treated vein blood of a healthy person; from tissue; host or cells: human heparinised venous whole blood (leukocytes)
T1 sequence (P09917 1-674): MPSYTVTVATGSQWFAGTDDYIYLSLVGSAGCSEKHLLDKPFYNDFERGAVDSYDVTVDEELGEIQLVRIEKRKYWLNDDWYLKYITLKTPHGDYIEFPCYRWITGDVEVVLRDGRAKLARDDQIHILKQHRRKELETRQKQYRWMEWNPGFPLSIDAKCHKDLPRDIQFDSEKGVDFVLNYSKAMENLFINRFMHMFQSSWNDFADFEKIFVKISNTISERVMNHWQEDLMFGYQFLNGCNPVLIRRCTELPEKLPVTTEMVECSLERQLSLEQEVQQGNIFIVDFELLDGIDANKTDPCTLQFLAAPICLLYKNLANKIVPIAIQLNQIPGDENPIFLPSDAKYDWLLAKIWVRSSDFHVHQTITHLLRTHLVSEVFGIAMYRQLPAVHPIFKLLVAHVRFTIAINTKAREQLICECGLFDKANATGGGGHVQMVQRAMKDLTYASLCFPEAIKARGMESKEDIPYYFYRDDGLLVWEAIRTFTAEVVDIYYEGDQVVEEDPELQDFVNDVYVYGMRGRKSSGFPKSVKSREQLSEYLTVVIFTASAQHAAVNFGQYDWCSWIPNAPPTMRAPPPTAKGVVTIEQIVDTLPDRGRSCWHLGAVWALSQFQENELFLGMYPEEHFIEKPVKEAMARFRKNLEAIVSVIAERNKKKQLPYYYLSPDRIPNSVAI
Experimental: To 1 ml of heparin-treated vein blood of a healthy person without an administration of drugs was added 1 µl of a DMSO solution of the drug test sample listed in Table 5 (final 10⁻⁵ M), and after treatment at 37°C for 5 minutes, 5 µl of a DMSO solution of A23187 was added (final 25 µM) and the treatment carried out at 37°C for 15 minutes, followed by ice-cooling. After the addition of 10 µl of a DMSO solution of 100 ng of 15-HETE as the internal standard substance for quantitation, 0.8 ml of acetonitrile was added, and the precipitates formed were removed by centrifugation. Then, LTB₄ and 5-HETE in the supernatant were subjected to HPLC separation and quantitation (ref. F.J. Sweeney, et al., Prostaglandins Leukotrienes & Med., 28, 73 (1987)).

[1] = test system: peritoneal mast cells of rat; assay: Histamine release from IgE-sensitized peritoneal mast cells, DNP-As antigen (allergic release); format: cell-based, Sprague-Dawley strain male rat
Experimental: (§1) To a Sprague-Dawley strain male rat (10 weeks or older) was intraperitoneally administered, under ether anesthesia, a diluted rat anti-DNP-As IgE serum at 2 ml/kg. After 16 hours, cells were recovered by washing intraperitoneally with a Tyrode solution containing 0.5% heparin (Ca⁺⁺, Mg⁺⁺, free). Mast cells (5 x 10⁴) separated by overlying in the 30% Ficoll/Tyrode solution and centrifugation were reliberated into the Tyrode solution (Ca⁺⁺, Mg⁺⁺) and incubated with the addition of the drug solution shown in Table 3-1, for 10 minutes, and then DNP-As and phosphatidylserine were added to final concentrations of 20 µg/ml and 25 µg/ml, respectively, followed by incubation for 10 minutes. The reaction was stopped by ice-cooling, and the histamine release in the supernatant was determined by fluorophotometry.

[2] = test system: anti-TNP IgE antibody production; assay: IgE antibody production suppressive effect: anti-TNP IgE production by cultured spleen cells of TNP-KLH-immunized mouse; format: cell-based, BALB/C mouse; details: for Anti-TMP antibody production IgE, value in brackets (IgE production dependency on the antigen) / Anti-TMP antibody production IgE: TNP-KLH 10 ng/ml; for Anti-TMP antibody production IgE, value in brackets (IgE production dependency on the antigen): no addition 8.5; for Anti-TMP antibody production IgE: no addition 13.0
Experimental: (§2) An 8 weeks old BALB/C mouse (♀) was immunized by an intraperitoneal injection of 10 µg of TNP-KLH (trinitrophenyl-key hole limpet hemocyanine) and 2 mg of aluminum hydroxide gel, and after 3 weeks, 1 µg of TNP-KLH and 2 mg of aluminum hydroxide gel were boosted, and 4 weeks later, the spleen was enucleated.
(§3) The spleen cells (6 x 10⁶) were cultured together with 10 ng/ml of TNP-KLH, in the presence or non-presence of the compound of the present invention (10⁻⁵ to 10⁻⁷ M), in 1 ml of RPMI-1640 medium (containing 10% fetal bovine serum) for 2 days, followed by washing to remove the antigen and the drug, and the washed cells were resuspended in a fresh medium containing no antigen and further cultured for 5 days. All cultivations were performed under 5% CO₂ at 37°C. After completion of the culturing, the supernatant was recovered, and the concentration of anti-TNP IgE or anti-TNP IgG antibody was determined by an antigen and isotype specific immunoassay. […]
The values in the brackets ( ) indicate the values of the spontaneous IgE production amount observed when TNP-KLH was not added, and represent the IgE production dependency on the antigen.
(§4) The same experimental methods were used for the compounds shown below, and IgE antibody production suppressive effects were evaluated. […] (Exemplary compound VI - (1)): methyl (6,7-dimethoxy-2-naphthylthio)acetate (Exemplary compound V - (4)): N-(2-methoxycarbonylphenyl)-(6,7-dihydroxy-2-naphthylthio)acetamide (Exemplary compound V - (2)): N-tetrazolyl(6,7-dihydroxy-2-naphthylthio)acetamide Table 2

[3] = test system: peritoneal mast cells of rat; assay: Histamine release from peritoneal mast cells induced by Compound 48/80 (non-allergic release); format: cell-based, Sprague-Dawley strain male rat; details: for inhibition at 10 µM: 10⁻⁵ M
Experimental: as §1, with “fluorophotometry. Regarding the non-allergy release, 5 x 10⁴ of mast cells were investigated by incubation with 0.5 µg/ml of Compound 48/80 for 10 minutes, after the addition of the drug solution shown in Table 3-2.” for “fluorophotometry.”

[4] = test system: Rat homologous PCA reaction; assay: Rat homologous PCA reaction; format: in vivo, Sprague-Dawley strain male rat; details: p.o., 1 hour before antigen
Experimental: The back of a Sprague-Dawley strain male rat (6 - 8 w) was depilated, and at one site on both sides thereof, 0.1 ml of a rat anti-ovalbumin IgE serum diluted with physiological saline was intradermally injected under ether anesthesia. After 48 hours, 25 mg/kg of ovalbumin, 25 mg/kg of Evans Blue were intravenously administered to induce the PCA reaction, and after 30 minutes, the skin was peeled off, dipped in a mixture of 0.3% Na₂SO₄·10H₂O/Acetate (3:7), and the dye amount infiltrated was quantitated by absorbance at 620 nm. The drug listed in Table 4 was suspended in 5% gum arabic solution and orally administered 1 hour before the antigen administration.

anti-TNP IgG = assay: Anti-TNP IgG production by cultured spleen cells of TNP-KLH-immunized mouse; format: cell-based, BALB/C mouse; details: for Anti-TMP antibody production IgG: TNP-KLH 10 ng/ml, no addition 8.1
Experimental: as §2, §3, §4

**Q.** Which “5-HETE (Inhibitory ratio %)” value (Lipoxygenase) does the source give for COC(=O)CSc1ccc2cc(O)c(O)cc2c1 [Exemplary compound IV-(1), Methyl (6,7-dihydroxy-2-naphthylthio)acetate] here?
**A.** 60%

**Q.** And the “LTB₄ (Inhibitory ratio %)” value (Lipoxygenase)?
**A.** 74%

**Q.** What about the “Amount of LTB₄ produced” value (Lipoxygenase; no addition 125) of the same molecule?
**A.** 32 ng/ml/plasma

**Q.** And the “Amount of 5-HETE produced” value (Lipoxygenase; no addition 130)?
**A.** 52 ng/ml/plasma

**Q.** And the “suppressive action against allergy histamine release (in words)” value [1]?
**A.** suppressive actions

**Q.** What about the “suppression of anti-TNP IgE antibody production (in words)” value ([2]; 10⁻⁵ to 10⁻⁷ M) of the same molecule?
**A.** suppressed the anti-TNP IgE antibody production dose-dependency

**Q.** What about the “Anti-TMP antibody production IgE, value in brackets (IgE production dependency on the antigen)” value ([2]; 10⁻⁶ M) of the same molecule?
**A.** 1.0 ng/mL

**Q.** What about the “Anti-TMP antibody production IgE” value ([2]; 10⁻⁶ M) of the same molecule?
**A.** 5.5 ng/mL

**Q.** And the “Anti-TMP antibody production IgE, value in brackets (IgE production dependency on the antigen)” value ([2]; 10⁻⁷ M)?
**A.** 2.5 ng/mL

**Q.** What about the “Anti-TMP antibody production IgE” value ([2]; 10⁻⁷ M) of the same molecule?
**A.** 7.5 ng/mL

**Q.** What about the “suppressive ratio (antigen-dependent IgE production)” value ([2]; antigen-dependent IgE production compared with spontaneous IgE production) of the same molecule?
**A.** 70 - 90%

**Q.** And the “suppressive action against non-allergy histamine release (in words)” value [3]?
**A.** weak suppressive actions

**Q.** And the inhibition at 100 µM ([3]; Rattus norvegicus, Mast cell, 10 min, Experiment 1, 10⁻⁴ M, Compound 48/80 0.5 µg/ml, read-out: Inhibitory ratio (%) histamine release)?
**A.** 23%

**Q.** What about the inhibition at 10 µM ([3]; Rattus norvegicus, Mast cell, 10 min, Experiment 1, Compound 48/80 0.5 µg/ml, read-out: Inhibitory ratio (%) histamine release) of the same molecule?
**A.** 10.5%

**Q.** And the inhibition at 1 µM ([3]; Rattus norvegicus, Mast cell, 10 min, Experiment 1, 10⁻⁶ M, Compound 48/80 0.5 µg/ml, read-out: Inhibitory ratio (%) histamine release)?
**A.** -1.9%

**Q.** What about the inhibition at 10 µM ([3]; Rattus norvegicus, Mast cell, 10 min, Experiment 2, Compound 48/80 0.5 µg/ml, read-out: Inhibitory ratio (%) histamine release) of the same molecule?
**A.** 2%

**Q.** What about the “Suppressive ratio (%) Experiment 1” value ([4]; 25 mg/kg) of the same molecule?
**A.** 14.8%

**Q.** What about the “Suppressive ratio (%) Experiment 2” value ([4]; 25 mg/kg) of the same molecule?
**A.** 24.2%

**Q.** And the “Suppressive ratio (%) Experiment 2” value ([4]; 50 mg/kg)?
**A.** 31.3%

**Q.** And the “suppressive effect against the production of anti-TNP IgG (in words)” value (anti-TNP IgG)?
**A.** substantially no suppressive effect

**Q.** What about the “Anti-TMP antibody production IgG” value (anti-TNP IgG; 10⁻⁶ M) of the same molecule?
**A.** 7.3 µg/mL

**Q.** And the “Anti-TMP antibody production IgG” value (anti-TNP IgG; 10⁻⁷ M)?
**A.** 7.5 µg/mL
